This is an account of results in ChEMBL document CHEMBL5260858, “Targeting mycobacterial membranes and membrane proteins: Progress and limitations” (Bioorg Med Chem, 2023).

In assay [1] the test system is Mycobacterium tuberculosis variant bovis. Briefly: Antitubercular activity against Mycobacterium bovis BCG infected in mouse J774.A1 cells assessed as reduction in intracellular bacterial load incubated for 6 days. Format: functional. Particulars: 144 h, time 6 day.
For assay [2] the test system is unchanged. The assay is described as follows: Antitubercular activity against Mycobacterium bovis BCG assessed as bacterial growth inhibition incubated for 14 days by agar plate method. Format: functional. Particulars: 336 h, time 14 day.
For assay [3] the test system is unchanged. Briefly: Antitubercular activity against Mycobacterium bovis BCG assessed as bacterial growth inhibition. Format: functional.
Assay [4] has the same test system. The assay is described as follows: Antitubercular activity against Mycobacterium bovis BCG assessed as minimum bactericidal concentration for 99.9% activity. It counts as functional. The following applies: read-out: MBC99.9.
For assay [5] the test system is unchanged. Briefly: Antitubercular activity against Mycobacterium bovis assessed as bacterial growth inhibition. Format: functional.
The test system is the same in assay [6]. Briefly: Antitubercular activity against Mycobacterium bovis BCG assessed as bacterial growth inhibition incubated for 24 hrs by [14C]-acetate labelling based radiometric analysis. Format: functional.
For assay [7] the test system is unchanged. The assay is described as follows: Inhibition of mycolic acid biosynthesis in Mycobacterium bovis BCG assessed as decrease in methoxy-mycolic acid in presence of 14C-labeled acetic acid incubated for 60 mins by photo-stimulated luminescence analysis. Format: functional, organism-based. The following applies: 1 h.
For assay [8] the test system is unchanged. Briefly: Inhibition of mycolic acid biosynthesis in Mycobacterium bovis BCG assessed as decrease in keto-mycolic acid in presence of 14C-labeled acetic acid incubated for 60 mins by photo-stimulated luminescence analysis. It counts as functional, organism-based. The following applies: 1 h.
Assay [9] has the same test system. The assay is described as follows: Antitubercular activity against Mycobacterium tuberculosis variant bovis assessed as bacterial growth inhibition. It counts as functional.

Values after ≈ are worked out from the molar mass of the structure shown.

For `COC(=O)c1c(NC(=O)c2c(F)c(F)c(F)c(F)c2F)sc2c1CCCCC2`, in assay [1], the MIC stood at 12.8 µM (≈ 5.37 µg/mL).

For the molecule `Cc1cc2oc(=O)cc(-c3cccc(N)c3)c2c(C)c1-c1ccc(CN2CCOCC2)cc1`, the MIC in [2] was found to be 0.71 µM (≈ 0.313 µg/mL).

`CCCCCCCCn1cc(CN2CCCCCC2)c2c(F)cccc21`: the MIC50 in assay [3] was found to be 0.3 µM (≈ 0.108 µg/mL). For the same molecule, the MBC in assay [4] was found to be 12 µM (≈ 4.3 µg/mL).

Take `CCCCCCCCn1cc(CN2CCC3(CC2)OCCCO3)c2ccc(OC)cc21`: the MIC50 in assay [3] was determined as 0.3 µM (≈ 0.129 µg/mL). The MBC in [4] amounted to 1.2 µM (≈ 0.514 µg/mL).

As for `COc1cccc2ccn(CCCCC[P+](c3ccccc3)(c3ccccc3)c3ccccc3)c12`, in assay [5], the MIC50 came out at 2 µM.

As to `CCc1ccc([C@H]2C[C@@H](C(F)(F)F)n3ncc(C(=O)NCc4ccc5c(c4)OCO5)c3N2)cc1`, in assay [6], the minimal inhibitory concentration (MIC) was 0.8 µM (≈ 0.378 µg/mL).

`O=[N+]([O-])c1cccc2c1ccn2CCCCC[P+](c1ccccc1)(c1ccccc1)c1ccccc1`: the MIC50 in assay [5] worked out at 3 µM.

On to `CCc1ccc([C@H]2C[C@@H](C(F)(F)F)n3ncc(C(=O)NCc4ccc(OC)cc4)c3N2)cc1`, for which the MIC in [6] was determined as 0.3 µM (≈ 0.138 µg/mL).

With `COC(=O)c1c(NC(=O)c2c(F)c(F)c(F)c(F)c2F)sc(C(N)=O)c1C`, the MIC in assay [1] worked out at 6.4 µM (≈ 2.61 µg/mL).

As for `C[C@@]1(COc2ccc(N3CCC(Oc4ccc(OC(F)(F)F)cc4)CC3)cc2)Cn2cc([N+](=O)[O-])nc2O1`, the IC50 in assay [7] worked out at 0.63 µg/mL; in assay [8] it was 0.69 µg/mL.

On to `COc1nc2ccc(Br)cc2cc1[C@@H](c1ccccc1)[C@@](O)(CCN(C)C)c1cccc2ccccc12` [BEDAQUILINE], for which the MIC in assay [5] came to 0.003 µg/mL (≈ 5.4 nM).

On to `NNC(=O)c1ccncc1` [ISONIAZID], for which the IC50 in [7] came out at 0.036 µg/mL; in assay [8] it was 0.021 µg/mL.

Consider `CCc1nc2ccc(Cl)cn2c1C(=O)NCc1ccc(N2CCC(c3ccc(OC(F)(F)F)cc3)CC2)cc1` [TELACEBEC], for which the MIC in [9] came out at 0.0035 µM (≈ 0.00195 µg/mL).
